The results in this text go back to ChEMBL document CHEMBL1128401, “Structure-activity relationships in the 8-amino-6,7,8,9-tetrahydro-3H-benz[e]indole ring system. 1. Effects of substituents in the aromatic system on serotonin and dopamine receptor subtypes” (J Med Chem, 1995).

Structures are written as SMILES. Active and inactive are the calls of the source. The rule behind the calls is not given here.

Series [1] concerns the target T1, D(3) dopamine receptor (Rattus norvegicus, UniProt P19020). As to the kind of experiment: Binding affinity against Dopamine receptor D3 from CHO-K1 cells, using [3H]spiperone as the radioligand. The class given is cell-based. The note with it: read-out: Ki.
The subject of series [2] is Rattus norvegicus. Put plainly: In vivo for DOPA accumulation in limbic system against reserpine-pretreated rats. The class given is functional.
Series [3] relates to Rattus norvegicus. Put plainly: In vivo for 5-HTP accumulation in limbic system against reserpine-pretreated rats. The class given is functional.
Series [4] addresses 5-hydroxytryptamine receptor 1B (Homo sapiens, UniProt P28222). As to the kind of experiment: Binding affinity against 5-hydroxytryptamine 1D receptor beta expressed in CHO-K1 cells, using [3H]5-HT as the radioligand. The class given is cell-based.
Series [5] has as its system Rattus norvegicus. As to the kind of experiment: In vivo for 5-HTP accumulation in corpus striatum against reserpine-pretreated rats. The class given is functional.
Series [6] has as its target T2, D(2) dopamine receptor (Rattus norvegicus, UniProt P61169). As to the kind of experiment: Binding affinity against Dopamine receptor D2 from CHO-K1 cells, using [3H]U-86,170 as the radioligand. The class given is cell-based.
The test system of series [7] is Rattus norvegicus. As to the kind of experiment: Compound was tested in vivo for DOPA accumulation in corpus striatum against reserpine-pretreated rats. The class given is functional.
Series [8] addresses T3, 5-hydroxytryptamine receptor 1A (Rattus norvegicus, UniProt P19327).
T3 sequence (P19327 whole entry): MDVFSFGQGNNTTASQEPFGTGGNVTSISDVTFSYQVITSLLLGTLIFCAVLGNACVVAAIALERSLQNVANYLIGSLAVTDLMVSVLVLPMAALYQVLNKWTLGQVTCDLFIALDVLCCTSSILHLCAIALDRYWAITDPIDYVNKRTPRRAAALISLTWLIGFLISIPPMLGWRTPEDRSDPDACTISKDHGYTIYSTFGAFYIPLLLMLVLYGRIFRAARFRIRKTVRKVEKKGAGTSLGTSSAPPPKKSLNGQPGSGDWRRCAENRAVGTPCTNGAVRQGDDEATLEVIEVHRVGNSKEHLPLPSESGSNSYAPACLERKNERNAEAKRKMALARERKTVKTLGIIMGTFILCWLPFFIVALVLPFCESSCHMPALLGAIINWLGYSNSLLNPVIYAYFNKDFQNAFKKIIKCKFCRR
As to the kind of experiment: Binding affinity against 5-hydroxytryptamine 1A receptor from CHO-K1 cells, using [3H]8-OH-DPAT as the radioligand. The class given is cell-based.

The test system of series [9] is Rattus norvegicus. As to the kind of experiment: The Compound was tested in vivo for DOPA accumulation in hemispheres (cortex) against reserpine-pretreated rats;I= inactive at the highest dose tested (50). The class given is functional, organism-based.
For series [10], the target named is 5-hydroxytryptamine receptor 1D (Homo sapiens, UniProt P28221). As to the kind of experiment: Binding affinity against 5-hydroxytryptamine 1D receptor alpha expressed in CHO-K1 cells, using [3H]-5-HT as the radioligand. The class given is cell-based. The note with it: read-out: Ki.
Sequence of 5-hydroxytryptamine receptor 1D (P28221 whole entry): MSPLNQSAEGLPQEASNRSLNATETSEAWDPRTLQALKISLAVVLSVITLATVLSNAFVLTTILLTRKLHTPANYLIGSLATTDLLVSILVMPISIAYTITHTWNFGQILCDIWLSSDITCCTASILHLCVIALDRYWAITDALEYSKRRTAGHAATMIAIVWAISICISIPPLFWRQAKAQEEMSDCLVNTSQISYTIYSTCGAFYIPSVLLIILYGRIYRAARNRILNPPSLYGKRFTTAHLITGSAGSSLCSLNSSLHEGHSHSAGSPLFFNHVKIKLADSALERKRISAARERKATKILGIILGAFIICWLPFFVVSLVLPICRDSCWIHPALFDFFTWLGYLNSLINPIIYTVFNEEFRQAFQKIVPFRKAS
For series [11], the system named is Rattus norvegicus. As to the kind of experiment: In vivo for 5-HTP accumulation in hemispheres (cortex) against reserpine-pretreated rats. The class given is functional.
The target in series [12] is T2, D(2) dopamine receptor. Put plainly: Binding affinity against Dopamine receptor D2 expressed in CHO-K1 cells, using [3H]U-86170 as the radioligand. The class given is cell-based.
Series [13] has as its system Rattus norvegicus. As to the kind of experiment: In vivo for DOPA accumulation in corpus striatum against reserpine-pretreated rats. The class given is functional.
Series [14] relates to Rattus norvegicus. As to the kind of experiment: Compound was tested in vivo for 5-HTP accumulation in hemispheres (cortex) against reserpine-pretreated rats; P=significant partial reduction only at the highest dose tested (12.5). The class given is functional, organism-based.
In series [15] the test system is Rattus norvegicus. As to the kind of experiment: The Compound was tested in vivo for DOPA accumulation in hemispheres (cortex) against reserpine-pretreated rats;I= inactive at the highest dose tested (25). The class given is functional, organism-based.
Series [16] concerns the target T1, D(3) dopamine receptor. As to the kind of experiment: Binding affinity against Dopamine receptor D3 expressed in CHO-K1 cells, using [3H]spiperone as the radioligand. The class given is cell-based.
For series [17], the system named is Rattus norvegicus. Put plainly: The compound was tested in vivo for DOPA accumulation in hemispheres (cortex) against reserpine-pretreated rats;I= inactive at the highest dose tested. The class given is functional, organism-based.
The subject of series [18] is Rattus norvegicus. As to the kind of experiment: compound was tested in vivo for DOPA accumulation in corpus striatum against reserpine-pretreated rats. The class given is functional.
Series [19] deals with Rattus norvegicus. Put plainly: The Compound was tested in vivo for DOPA accumulation in limbic system against reserpine-pretreated rats; P=significant partial reduction only at the highest dose tested (3.1). The class given is functional, organism-based.
Series [20] concerns Rattus norvegicus. As to the kind of experiment: Compound was tested in vivo for DOPA accumulation in corpus striatum against reserpine-pretreated rats;I= inactive at the highest dose tested (3.1). The class given is functional, organism-based.
In series [21] the test system is Rattus norvegicus. Put plainly: The Compound was tested in vivo for DOPA accumulation in hemispheres (cortex) against reserpine-pretreated rats; I=inactive at the highest dose tested (3.1). The class given is functional, organism-based.
For series [22], the system named is Rattus norvegicus. Put plainly: compound was tested in vivo for 5-HTP accumulation in corpus striatum against reserpine-pretreated rats, activity expressed as ED50;I= inactive at the highest dose tested. The class given is functional, organism-based.
Series [23] concerns Rattus norvegicus. As to the kind of experiment: The compound was tested in vivo for DOPA accumulation in limbic system against reserpine-pretreated rats; I=inactive at the highest dose tested. The class given is functional, organism-based.
In series [24] the test system is Rattus norvegicus. Put plainly: The Compound was tested in vivo for DOPA accumulation in hemispheres (cortex) against reserpine-pretreated rats; P=significant partial reduction only at the highest dose tested (12.5). The class given is functional, organism-based.
Series [25] can be described thus: tmax in hours at a iv dose of 5.0(pmol/g/h). The note with it: in vivo. The class given is ADME, organism-based.
Series [26] concerns Rattus norvegicus. As to the kind of experiment: Bioavailability in male Sprague-Dawley rats, after the iv administration at a dose of 5.0(pmol/g/h). The class given is ADME, organism-based. The note with it: in vivo.
Series [27] is described as follows: Rat bioavailability after iv/po administration, expressed as %. The note with it: in vivo. The class given is ADME, organism-based.
Series [28] has as its system Rattus norvegicus. As to the kind of experiment: Bioavailability in male Sprague-Dawley rats, after the po administration at a dose of 40.0(pmol/g/h). The class given is ADME, organism-based. The note with it: in vivo.
The nature of series [29]: tmax in hours at a po dose of 40.0(pmol/g/h). The class given is ADME, organism-based. The note with it: in vivo.

What is called Ki is a measure of affinity in units of concentration, obtained from inhibition or displacement. In general, ED50 refers to the dose at which the effect has come halfway, by size or by number of responders. What is called Tmax is the time at which the peak concentration occurs. The bioavailability is the share of a dose that reaches the circulation, judged against a reference dose that is usually intravenous. Read a high bioavailability as good availability.

Sequence of 5-hydroxytryptamine receptor 1B (P28222 whole entry): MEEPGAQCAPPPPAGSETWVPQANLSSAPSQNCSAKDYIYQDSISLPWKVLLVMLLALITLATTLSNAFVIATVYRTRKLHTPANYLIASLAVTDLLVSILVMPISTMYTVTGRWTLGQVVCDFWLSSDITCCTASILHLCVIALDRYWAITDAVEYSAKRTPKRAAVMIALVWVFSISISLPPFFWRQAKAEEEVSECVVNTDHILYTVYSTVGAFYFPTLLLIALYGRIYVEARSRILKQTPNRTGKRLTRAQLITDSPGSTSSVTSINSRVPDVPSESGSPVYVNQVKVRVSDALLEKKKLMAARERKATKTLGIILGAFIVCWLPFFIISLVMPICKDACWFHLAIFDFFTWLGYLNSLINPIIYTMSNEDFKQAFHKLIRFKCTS
T2 sequence (P61169 whole entry): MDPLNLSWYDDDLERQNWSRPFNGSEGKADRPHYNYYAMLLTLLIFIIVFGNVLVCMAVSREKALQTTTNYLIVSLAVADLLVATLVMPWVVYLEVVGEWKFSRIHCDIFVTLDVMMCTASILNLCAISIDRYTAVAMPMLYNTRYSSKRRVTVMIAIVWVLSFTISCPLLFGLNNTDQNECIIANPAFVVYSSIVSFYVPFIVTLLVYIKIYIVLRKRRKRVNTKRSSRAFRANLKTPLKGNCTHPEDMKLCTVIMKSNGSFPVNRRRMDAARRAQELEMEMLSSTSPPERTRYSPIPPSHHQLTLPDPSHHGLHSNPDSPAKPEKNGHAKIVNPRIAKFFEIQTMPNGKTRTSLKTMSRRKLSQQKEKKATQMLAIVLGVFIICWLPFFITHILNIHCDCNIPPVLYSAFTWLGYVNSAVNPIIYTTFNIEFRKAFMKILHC
T1 sequence (P19020 whole entry): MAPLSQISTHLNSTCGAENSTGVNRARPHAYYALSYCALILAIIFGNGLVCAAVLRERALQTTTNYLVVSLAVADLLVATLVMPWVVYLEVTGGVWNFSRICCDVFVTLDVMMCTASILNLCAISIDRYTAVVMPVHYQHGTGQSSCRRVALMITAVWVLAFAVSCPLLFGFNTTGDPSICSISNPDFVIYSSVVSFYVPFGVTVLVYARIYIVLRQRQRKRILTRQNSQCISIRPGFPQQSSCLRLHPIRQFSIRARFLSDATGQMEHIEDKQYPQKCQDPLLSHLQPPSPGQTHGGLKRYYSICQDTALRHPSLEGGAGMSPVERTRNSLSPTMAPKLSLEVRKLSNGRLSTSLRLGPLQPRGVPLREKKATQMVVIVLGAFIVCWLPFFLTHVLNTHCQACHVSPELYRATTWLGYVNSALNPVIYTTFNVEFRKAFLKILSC

Take `CCCN(CCC)C1CCc2ccc3[nH]cc(C(=O)C(F)(F)F)c3c2C1` (centres undefined): the Ki on D(3) dopamine receptor [1] was found to be 0.675 µM; in series [4] (read-out: Ki), 0.279 µM; at D(2) dopamine receptor [6], 0.544 µM; in [8], 0.02 µM; in series [10] it was 0.112 µM. Besides, the ED50 was 20.8 µmol/kg in the series with Rattus norvegicus [2]; 12.6 µmol/kg in the series on Rattus norvegicus [3]; 6.5 µmol/kg with Rattus norvegicus [5]; 12.6 µmol/kg in the series on Rattus norvegicus [7]; 16.3 µmol/kg in the series on Rattus norvegicus [11]. For the same compound, the ED50 entry with Rattus norvegicus [9] is “inactive”.

For the compound `CCCN(CCC)C1CCc2ccc3[nH]cc(SC)c3c2C1` (centres undefined), the Ki is 0.033 µM on D(2) dopamine receptor [12]; “Not Active” in [4] (cho-k1); 0.013 µM in series [8]; 0.018 µM in [10]; 0.055 µM at D(3) dopamine receptor [16]. Also, the ED50 was 5.23 µmol/kg with Rattus norvegicus [13]; 7.11 µmol/kg in the series with Rattus norvegicus [2]; 10 µmol/kg with Rattus norvegicus [3]; “Weak activity” with Rattus norvegicus [14]; 10.2 µmol/kg in the series on Rattus norvegicus [5]. Further, the ED50 entry with Rattus norvegicus [15] was “inactive”.

In the case of `CCCN(CCC)C1CCc2ccc3[nH]cc(C=O)c3c2C1` (centres undefined), the Ki on D(3) dopamine receptor [1] is 0.07 µM; in series [4] (read-out: Ki), 0.364 µM; in series [10], 0.173 µM. The ED50 entry with Rattus norvegicus [17] was “inactive”. For the same compound, the ED50 in the series with Rattus norvegicus [18] came out at 3.34 µmol/kg.

With `CCCN(CCC)[C@@H]1CCc2ccc3[nH]cc(C#N)c3c2C1`, the Ki on D(2) dopamine receptor [12] was 0.022 µM; in [4] (read-out: Ki) it was 0.026 µM; in series [8], 0.0008 µM; in series [10], 0.0067 µM; on D(3) dopamine receptor [16], 0.045 µM. Further, in the series on Rattus norvegicus [19], the ED50 entry was “Weak activity”. Also, the ED50 entry with Rattus norvegicus [20] and in the series on Rattus norvegicus [21] was “inactive” each time.

Regarding `CCCN(CCC)C1CCc2ccc3c(c(C=O)cn3C)c2C1` (centres undefined), the Ki on D(3) dopamine receptor [1] came out at 1.01 µM; in [4] (read-out: Ki) it was 0.439 µM; on D(2) dopamine receptor [6], 0.51 µM; in series [8], 0.04 µM; in series [10], 0.334 µM. The ED50 entry in the series on Rattus norvegicus [22], in the series with Rattus norvegicus [17] and in the series with Rattus norvegicus [23] was “inactive” each time.

For the compound `CCCN(CCC)C1CCc2ccc3[nH]cc(C#N)c3c2C1` (centres undefined), the ED50 entry in the series with Rattus norvegicus [24] is “Weak activity”. Further, the inhibition constant Ki worked out at 0.024 µM at D(2) dopamine receptor [12]; 0.038 µM in series [4] (read-out: Ki); 0.0004 µM in [8]; 0.0075 µM in series [10]; 0.043 µM at D(3) dopamine receptor [16]. For the same compound, in series [25], the time to peak (Tmax) came out at 2 h. Further, the AUC in the series with Rattus norvegicus [26] is on record as 1115 pM ml-1; in the series with Rattus norvegicus [28], 4849 pM ml-1. For the same compound, in [27], the bioavailability is 54%. The T max in [29] turned out to be 135 h.
